For this test, the target named is T1, CX43 (connexin 43; recombinant human CX43) (Homo sapiens, UniProt P17302).
T1 construct: gene GJA1; recombinant human CX43 from GenScript, immobilised on CM5 chip
As to the kind of experiment: SPR, Biacore T200, CX43 immobilised on CM5 chip. It counts as binding.

T1 sequence (P17302 2-382): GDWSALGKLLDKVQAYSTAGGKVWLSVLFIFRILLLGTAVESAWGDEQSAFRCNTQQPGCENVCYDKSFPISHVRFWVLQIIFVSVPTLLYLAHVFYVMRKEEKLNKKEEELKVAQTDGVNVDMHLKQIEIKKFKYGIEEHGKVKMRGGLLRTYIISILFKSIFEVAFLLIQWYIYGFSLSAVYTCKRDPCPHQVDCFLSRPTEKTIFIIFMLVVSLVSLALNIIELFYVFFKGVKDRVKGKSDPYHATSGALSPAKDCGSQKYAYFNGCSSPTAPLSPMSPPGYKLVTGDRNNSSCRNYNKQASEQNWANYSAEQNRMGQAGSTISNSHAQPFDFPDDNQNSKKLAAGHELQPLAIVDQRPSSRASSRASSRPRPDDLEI

On to `NC(=O)c1ccc[n+]([C@@H]2O[C@H](COP(=O)([O-])OP(=O)(O)OC[C@H]3O[C@@H](n4cnc5c(N)ncnc54)[C@H](O)[C@@H]3O)[C@@H](O)[C@H]2O)c1` [NAD^+], for which the Kd was 0.0142 nM.

Values taken from publication PMC12559800, “A NADH Oxidase Nanozyme Restores Redox Homeostasis to Ameliorate Multi-Organ Aging and Ischemic Cardiomyopathy” (Research, 2025).
